{"source": "patent US8993254B2", "about": "“Methods for evaluating risk of mother's milk or food inducing an onset of atopic dermatitis, and mother's milk or food with reduced risk of inducing an onset of atopic dermatitis” (Saitama Medical University, priority 2009, dated 2015)", "key": {"THP-1 cells": {"test_system": "THP-1 cells", "assay": "Measurement of intracellular cAMP concentration in PMA-treated THP-1 cells", "format": "cell-based", "settings": "THP-1 cells treated with PMA, co-incubated with 10 to 30 μg/ml (13 to 39 μM) of coenzyme A", "description": "In a humid incubator under conditions of 37° C. and 5% CO2, THP-1 cells were cultured in an RPMI1640 medium supplemented with 10% fetal bovine serum, 1% penicillin and streptomycin, and 1% L-glutamine. The THP-1 cells were exposed to 50 ng/ml of PMA (phorbol 12-myristate 13-acetate) for 48 hours, followed by washing. Then, the cells were cultured at 37° C. in the presence of 1 mM 3-isobutyl-1-methyl-xanthine. After 10 minutes, the cells were stimulated with 30% mother's milk (AD: n=55, non-AD: n=55) for 10 minutes, and lysed with cell lysis buffer (Molecular Devices). In some experiments, THP-1 cells treated with 50 ng/ml of PMA for 48 hours were exposed to 10 μM prostaglandin E2 (PGE2). The intracellular cAMP level was measured using CatchPoint™ cyclicAMP fluorescent assay kit (Molecular Devices LLC) in accordance with the maker instruction. In some experiments, delta (Δ)-cAMP was calculated by subtracting the cAMP concentration in THP-1 stimulated with PMA without adjuvant stimulation from the cAMP concentration in THP-1 stimulated with PMA with adjuvant stimulation."}, "SJL/J mice": {"test_system": "SJL/J mice", "assay": "Mixed lymphocyte reaction using CD3ε-negative cells harvested from mice to which coenzyme A had been orally administered", "format": "in vivo", "description": "SJL/J mice (H-2^s) and Nc/Nga mice (non H-2^s) were purchased from Charles River Inc. and Japan SLC, Inc., respectively. 50 μg/ml of coenzyme A was orally administered to the SJL/J mice. Two days later, CD3ε-negative cells were obtained from mesenteric lymph node cells using “[…]” (Miltenyi Biotec Inc.). On the same day, CD62L-positive naive CD4-positive T cells were obtained from the spleens of the Nc/Nga mice using “CD4^+ T cell isolation kit” and “CD62L^+ T cell isolation kit” (Miltenyi Biotec Inc.). Then, 1×10^4 CD3ε-negative cells and 1×10^5 allogenic CD62L-positive naive CD4-positive T cells were co-cultured in a 96-well flat-bottomed culture plate. A mixed lymphocyte reaction (MLR) was induced in an RPMI1640 medium supplemented with 10% FCS for 7 days. Next, the T cells were restimulated with an anti-CD3 antibody and an anti-CD28 antibody (Biolegends, Inc.). The culture supernatant were harvested 16 hours later, and analyzed for IFNγ, IL-4, and\nIL-5 using IFNγ, IL-4 and IL-5 ELISA kits (R&D systems, Inc.).\nCoenzyme A-containing drinking water (10 to 20 μg/kg/day) was orally administered to mice. […] cells were isolated from the mesenteric lymph node 2 days after the coenzyme A administration, and co-cultured with allogenic CD62L-positive naive CD4-positive T cells."}, "[1]": {"test_system": "Human monocyte-derived dendritic cells (Mo-DCs)", "assay": "Analysis of T cell-differentiation using dendritic cells (mixed lymphocyte reaction, IFNγ and IL-5 ELISA)", "format": "cell-based", "settings": "Mo-DCs pretreated with 1 μg/ml of coenzyme A (FIG. 3B)", "description": "Human Mo-DCs and CD45RA-positive naive T cells (purity of more than 99%) were prepared according to the previous report (Takagi, R. et al., J Immunol 181: 186-189, 2008).\nThe immature Mo-DCs were stimulated with 1 to 10% of a liquid fraction of mother's milk or 0 to 10 μg/ml of coenzyme A. Two days after culturing with the liquid fraction or coenzyme A, to induce a mixed lymphocyte reaction (MLR), the cell component was further cultured together with HLA-DR-nonshared allogenic CD4-positive naive T cells in an RPMI1640 medium supplemented with 10% human serum for 6 to 8 days. Then, the T cells were restimulated with an anti-CD3 antibody and an anti-CD28 antibody (BD Pharmingen Inc.). After 48 hours, the culture supernatant was collected to analyze IFNγ and IL-5 by ELISA using IFNγ and IL-5 ELISA kits (R&D systems, Inc.)."}, "[2]": {"settings": "oral, drinking water 10 to 20 μg/kg/day, mesenteric lymph node cells isolated 2 days after administration (FIG. 4A)"}, "[3]": {"settings": "treated mice, oral 10 to 20 μg/kg/day (FIG. 4B)"}}}
{"molecule": "CC(C)(COP(=O)(O)OP(=O)(O)OC[C@H]1O[C@@H](n2cnc3c(N)ncnc32)[C@H](O)[C@@H]1OP(=O)(O)O)[C@@H](O)C(=O)NCCC(=O)NCCS", "note": "[coenzyme A]", "values": [{"measurement": "intracellular cAMP", "setting": "THP-1 cells", "result": "elevated"}, {"measurement": "IFNγ production in T cells (MLR)", "setting": "SJL/J mice; [2]", "result": "No statistically significant difference"}, {"measurement": "IL-4 production in T cells (MLR)", "setting": "SJL/J mice; [2]", "result": "significantly induced"}, {"measurement": "IL-5 production in T cells (MLR)", "setting": "SJL/J mice; [2]", "result": "significantly induced"}, {"measurement": "IL-4/IFNγ ratio", "setting": "SJL/J mice; [3]", "result": "significantly high"}, {"measurement": "IL-5/IFN ratio", "setting": "SJL/J mice; [3]", "result": "significantly high"}, {"measurement": "differentiation of allogenic naive CD4-positive T cells into Th2 cells", "setting": "[1]", "result": "differentiated into Th2 cells"}]}
